This is an account of results in ChEMBL document CHEMBL5335853, “Acremosides A-G, Sugar Alcohol-Conjugated Acyclic Sesquiterpenes from a Sponge-Derived Acremonium Species” (J Nat Prod, 2024).

Molecules are shown by their SMILES.

One data set has as its system Hepatitis C virus. Put plainly: Antiviral activity against HCV infected in human Huh-7.5 cells assessed as inhibition of viral replication incubated for 72 hrs by qRT-PCR analysis. Conditions: Huh7.5, 72 h. The data set is classed as functional, organism-based, Hepacivirus hominis. (Real-time PCR tracks product formation cycle by cycle.)
The nature of data set [1]: Cytotoxicity against human Huh7.5 cells assessed as reduction in cell viability by CCK-8 assay. The data set is classed as toxicity, cell-based, Huh-7.5. In general terms: Formazan colour is commonly taken as a measure of viable cells.
Data set [2] can be described thus: Selectivity index, ratio of CC50 for cytotoxicity against human Huh7.5 cells to EC50 for antiviral activity against HCV infected in human Huh7.5 cells. The data set is classed as toxicity, cell-based. The following applies: read-out: Ratio CC50/EC50.
The subject of the next data set is Staphylococcus aureus. The experiment in a line: Antimicrobial activity against Staphylococcus aureus ATCC 29213 assessed as inhibition of microbial growth by CLSI protocol based two-fold serial broth microdilution method. The data set is classed as functional. For orientation: Dilution methods test growth across graded concentrations, often in twofold steps.
The subject of data set [3] is Staphylococcus epidermidis. The experiment in a line: Antimicrobial activity against Staphylococcus epidermidis ATCC 12228 assessed as inhibition of microbial growth by CLSI protocol based two-fold serial broth microdilution method. The data set is classed as functional.
The test system of a further data set is Bacillus subtilis. Put plainly: Antimicrobial activity against Bacillus subtilis ATCC 6633 assessed as inhibition of microbial growth by CLSI protocol based two-fold serial broth microdilution method. The data set is classed as functional.
The test system of another data set is Pseudomonas aeruginosa. Put plainly: Antimicrobial activity against Pseudomonas aeruginosa ATCC 27853 assessed as inhibition of microbial growth by CLSI protocol based two-fold serial broth microdilution method. The data set is classed as functional.
For the next data set, the system named is Klebsiella pneumoniae. The experiment in a line: Antimicrobial activity against Klebsiella pneumoniae ATCC 700603 assessed as inhibition of microbial growth by CLSI protocol based two-fold serial broth microdilution method. The data set is classed as functional.
The next data set has as its system Escherichia coli. Put plainly: Antimicrobial activity against Escherichia coli ATCC 25922 assessed as inhibition of microbial growth by CLSI protocol based two-fold serial broth microdilution method. The data set is classed as functional.
The subject of the next data set is Edwardsiella tarda. The experiment in a line: Antimicrobial activity against Edwardsiella tarda ATCC 15947 assessed as inhibition of microbial growth by CLSI protocol based two-fold serial broth microdilution method. The data set is classed as functional.
The test system of the next data set is Edwardsiella ictaluri. The experiment in a line: Antimicrobial activity against Edwardsiella ictaluri ATCC 33202 assessed as inhibition of microbial growth by CLSI protocol based two-fold serial broth microdilution method. The data set is classed as functional.

Turning to `CC(C)=C[C@@H]1C[C@](C)(O)[C@@H](C[C@@H](OC(=O)Cc2ccccc2)/C(C)=C/CO[C@@H]([C@H](O)[C@H](O)CO)[C@H](O)CO)O1`, the EC50 – broadly, the concentration giving half of the maximal effect – in the data set with Hepatitis C virus is 8.8 µM. For the same molecule, the CC50 (commonly the concentration at which the toxic effect on the cells reaches its halfway point) in data set [1] is above 200 µM. For the same molecule, the selectivity ratio in [2] was above 23. Moreover, the MIC (in the data set with Staphylococcus aureus; in data set [3]; with Bacillus subtilis; in the data set with Pseudomonas aeruginosa; in the data set with Klebsiella pneumoniae; in the data set on Escherichia coli) was at least 128 µg/mL throughout. For the same molecule, the MIC in the data set with Edwardsiella tarda and with Edwardsiella ictaluri was at least 128 µg/mL throughout.
With `CC(C)=C[C@H]1C[C@](C)(O)[C@@H](C[C@@H](OC(=O)Cc2ccccc2)/C(C)=C/CO[C@@H]([C@H](O)[C@H](O)CO)[C@H](O)CO)O1`, the EC50 with Hepatitis C virus stood at 16 µM. Besides, in [1], the half-maximal cytotoxic concentration (CC50) is above 200 µM. The selectivity ratio in data set [2] was above 12. The MIC (with Staphylococcus aureus; in [3]; in the data set on Bacillus subtilis; in the data set on Pseudomonas aeruginosa; in the data set on Klebsiella pneumoniae; in the data set on Escherichia coli) was at least 128 µg/mL each time. The minimum inhibitory concentration (MIC) in the data set with Edwardsiella tarda and with Edwardsiella ictaluri was at least 128 µg/mL throughout.
Regarding `COC[C@@H](O)[C@@H](OC/C=C(\C)[C@@H](C[C@@H](O)[C@@](C)(O)CCC=C(C)C)OC(=O)Cc1ccccc1)[C@H](O)[C@H](O)CO`, in the data set with Hepatitis C virus, the EC50 was 14 µM. Besides, in data set [1], the half-maximal cytotoxic concentration (CC50) was 55 µM. For the same molecule, the selectivity ratio in [2] is above 4. Moreover, the MIC (with Staphylococcus aureus; in [3]; with Bacillus subtilis; in the data set with Pseudomonas aeruginosa; in the data set with Klebsiella pneumoniae; in the data set on Escherichia coli) was at least 128 µg/mL throughout. For the same molecule, the MIC in the data set with Edwardsiella tarda and with Edwardsiella ictaluri was at least 128 µg/mL in each case.
With `CC(C)=CCC[C@](C)(O)[C@H](O)C[C@@H](OC(=O)Cc1ccccc1)/C(C)=C/CO[C@@H]([C@H](O)[C@H](O)CO)[C@H](O)CO`, in the data set on Hepatitis C virus, the EC50 came out at 4.8 µM. Further, the CC50 in data set [1] was above 200 µM. Besides, in data set [2], the selectivity ratio is above 42. In addition, the MIC (with Staphylococcus aureus; in data set [3]; with Bacillus subtilis; in the data set with Pseudomonas aeruginosa; with Klebsiella pneumoniae; in the data set with Escherichia coli) was at least 128 µg/mL each time. The MIC in the data set on Edwardsiella tarda and with Edwardsiella ictaluri was at least 128 µg/mL throughout.
Turning to `COC[C@@H](O)[C@@H](OC/C=C(\C)[C@@H](C[C@H]1O[C@H](C=C(C)C)C[C@]1(C)O)OC(=O)Cc1ccccc1)[C@H](O)[C@H](O)CO`, in the data set with Hepatitis C virus, the EC50 stood at 12 µM. In addition, in data set [1], the CC50 is above 200 µM. Besides, in data set [2], the selectivity ratio was above 17. The minimum inhibitory concentration (MIC) (in the data set on Staphylococcus aureus; in data set [3]; with Bacillus subtilis; in the data set with Pseudomonas aeruginosa; in the data set on Klebsiella pneumoniae; with Escherichia coli) was at least 128 µg/mL throughout. Moreover, the MIC in the data set with Edwardsiella tarda and with Edwardsiella ictaluri was at least 128 µg/mL each time.
Consider `CC(C)=CCC[C@](C)(O)[C@H](O)C[C@@H](OC(=O)Cc1ccccc1)/C(C)=C/CO[C@@H]([C@H](O)[C@@H](C)O)[C@H](O)CO`, for which the EC50 with Hepatitis C virus turned out to be 7.9 µM. Also, the CC50 in data set [1] is above 200 µM. Besides, in data set [2], the selectivity ratio is above 25. The MIC (in the data set on Staphylococcus aureus; in data set [3]; with Bacillus subtilis; in the data set on Pseudomonas aeruginosa; in the data set on Klebsiella pneumoniae; with Escherichia coli) was at least 128 µg/mL each time. The MIC in the data set with Edwardsiella tarda and in the data set with Edwardsiella ictaluri was at least 128 µg/mL throughout.
As for `CC(C)=CCC[C@](C)(O)[C@H](O)C[C@@H](OC(=O)Cc1ccccc1)/C(C)=C/COC([C@H](O)CO)[C@H](O)CO`, in the data set on Hepatitis C virus, the half-maximal effective concentration (EC50) was determined as 6.5 µM. In addition, in data set [1], the CC50 was above 200 µM. The selectivity ratio in [2] is above 31. The minimum inhibitory concentration (MIC) (with Staphylococcus aureus; in data set [3]; with Bacillus subtilis; with Pseudomonas aeruginosa; in the data set with Klebsiella pneumoniae; with Escherichia coli) was at least 128 µg/mL throughout. In addition, the MIC in the data set on Edwardsiella tarda and in the data set with Edwardsiella ictaluri was at least 128 µg/mL in each case.
With `CC(C)OC(=O)[C@H](C)N[P@](=O)(OC[C@H]1O[C@@H](n2ccc(=O)[nH]c2=O)[C@](C)(F)[C@@H]1O)Oc1ccccc1` [SOFOSBUVIR], the EC50 in the data set on Hepatitis C virus came out at 0.09 µM. For the same molecule, the cytotoxic concentration (CC50) in data set [1] was above 200 µM. The selectivity ratio in data set [2] was above 2220.
